System: MV-4-11 cells
Assay: Gene expression microarray analysis (Affymetrix PrimeView) and GSEA
Assay type: cell-based, human
Design: RFU PODN (11730768_x_at) / Fold change /veh PODN (11730768_x_at) / RFU LINC00158 (11744669_a_at) / Fold change /veh LINC00158 (11744669_a_at) / RFU DUSP10 (11751237_a_at) / Fold change /veh DUSP10 (11751237_a_at) / RFU ID3 (11757404_x_at) / Fold change /veh ID3 (11757404_x_at) / RFU PLEKHG5 (11737974_s_at) / Fold change /veh PLEKHG5 (11737974_s_at) / RFU LRRC4B (11730491_at) / Fold change /veh LRRC4B (11730491_at) / RFU GIMAP4 (11747438_a_at) / Fold change /veh GIMAP4 (11747438_a_at) / RFU KRT8 (11758183_x_at) / Fold change /veh KRT8 (11758183_x_at) / RFU CNN1 (11734310_a_at) / Fold change /veh CNN1 (11734310_a_at) / RFU VPS37D (11726825_at) / Fold change /veh VPS37D (11726825_at) / RFU C10orf10 (11716522_x_at) / Fold change /veh C10orf10 (11716522_x_at) / RFU KIR2DL2 /// KIR2DL4 /// KIR2DL5A /// KIR2DL5B /// KIR2DS1 /// KIR2DS2 /// KIR2DS3 /// KIR2DS4 /// KIR3DL3 /// KIR3DL3 /// KIR3DS1 (11738374_at) / Fold change /veh KIR2DL2 /// KIR2DL4 /// KIR2DL5A /// KIR2DL5B /// KIR2DS1 /// KIR2DS2 /// KIR2DS3 /// KIR2DS4 /// KIR3DL3 /// KIR3DL3 /// KIR3DS1 (11738374_at) / RFU C1QL1 (11718748_at) / Fold change /veh C1QL1 (11718748_at) / RFU TMPRSS4 (11747572_a_at) / Fold change /veh TMPRSS4 (11747572_a_at) / RFU HAMP (11756126_x_at) / Fold change /veh HAMP (11756126_x_at) / RFU RNFT2 (11725882_a_at) / Fold change /veh RNFT2 (11725882_a_at) / RFU NR4A2 (11747474_a_at) / Fold change /veh NR4A2 (11747474_a_at) / RFU ABCC12 (11746883_a_at) / Fold change /veh ABCC12 (11746883_a_at) / RFU TMEM136 (11760407_x_at) / Fold change /veh TMEM136 (11760407_x_at) / RFU CLDN22 /// WWC2 (11732394_at) / Fold change /veh CLDN22 /// WWC2 (11732394_at) / RFU HLA-DPB1 (11760878_x_at) / Fold change /veh HLA-DPB1 (11760878_x_at) / RFU SPINT1 (11716480_a_at) / Fold change /veh SPINT1 (11716480_a_at) / RFU GAP43 (11754022_s_at) / Fold change /veh GAP43 (11754022_s_at) / RFU A4GNT (11735810_at) / Fold change /veh A4GNT (11735810_at) / RFU PRB3 (11715151_x_at) / Fold change /veh PRB3 (11715151_x_at) / RFU TUBB4B (11761932_at) / Fold change /veh TUBB4B (11761932_at) / RFU CAPN14 (11732068_a_at) / Fold change /veh CAPN14 (11732068_a_at) / RFU TMCC2 (11721928_a_at) / Fold change /veh TMCC2 (11721928_a_at) / RFU IRGQ (11745062_a_at) / Fold change /veh IRGQ (11745062_a_at) / RFU FAM174B (11720279_a_at) / Fold change /veh FAM174B (11720279_a_at) / RFU TMPRSS4 (11748680_a_at) / Fold change /veh TMPRSS4 (11748680_a_at) / RFU FAM212B (11763350_a_at) / Fold change /veh FAM212B (11763350_a_at) / RFU PLEKHG5 (11743358_a_at) / Fold change /veh PLEKHG5 (11743358_a_at) / RFU ZSCAN30 (11745921_a_at) / Fold change /veh ZSCAN30 (11745921_a_at) / RFU CMKLR1 (11741424_a_at) / Fold change /veh CMKLR1 (11741424_a_at) / RFU LOC101060620 /// MAPK8IP1 (11723275_at) / Fold change /veh LOC101060620 /// MAPK8IP1 (11723275_at) / RFU SPTSSB (11747773_x_at) / Fold change /veh SPTSSB (11747773_x_at) / RFU PRSS12 (11739890_at) / Fold change /veh PRSS12 (11739890_at) / RFU BIN1 (11741810_x_at) / Fold change /veh BIN1 (11741810_x_at) / RFU WNT11 (11732464_a_at) / Fold change /veh WNT11 (11732464_a_at) / RFU C10orf10 (11716521_a_at) / Fold change /veh C10orf10 (11716521_a_at) / RFU C5orf56 (11738089_at) / Fold change /veh C5orf56 (11738089_at) / RFU CYB561 (11721691_x_at) / Fold change /veh CYB561 (11721691_x_at) / RFU ANKRD19P (11752326_a_at) / Fold change /veh ANKRD19P (11752326_a_at) / RFU OR2T12 /// OR2T33 /// OR2T8 (11738714_s_at) / Fold change /veh OR2T12 /// OR2T33 /// OR2T8 (11738714_s_at) / RFU VCAN (11748164_a_at) / Fold change /veh VCAN (11748164_a_at) / RFU JSRP1 (11732532_at) / Fold change /veh JSRP1 (11732532_at) / RFU KRTAP10-11 (11738290_x_at) / Fold change /veh KRTAP10-11 (11738290_x_at) / RFU MYO3A (11730013_a_at) / Fold change /veh MYO3A (11730013_a_at) / RFU EBF3 (11725865_a_at) / Fold change /veh EBF3 (11725865_a_at) / RFU CAMK2N1 (11719241_x_at) / Fold change /veh CAMK2N1 (11719241_x_at) / RFU C5orf56 (11738088_a_at) / Fold change /veh C5orf56 (11738088_a_at) / RFU OLFML3 (11715873_a_at) / Fold change /veh OLFML3 (11715873_a_at) / RFU LOC100653217 /// NTM (11731650_a_at) / Fold change /veh LOC100653217 /// NTM (11731650_a_at) / RFU MAPK11 (11762145_a_at) / Fold change /veh MAPK11 (11762145_a_at) / RFU FIZ1 (11724087_x_at) / Fold change /veh FIZ1 (11724087_x_at) / RFU OASL (11726364_x_at) / Fold change /veh OASL (11726364_x_at) / RFU SOX15 (11748057_x_at) / Fold change /veh SOX15 (11748057_x_at) / RFU CD79A (11719716_a_at) / Fold change /veh CD79A (11719716_a_at) / RFU HIST1H1D (11736915_at) / Fold change /veh HIST1H1D (11736915_at) / RFU CASKIN2 (11723855_a_at) / Fold change /veh CASKIN2 (11723855_a_at) / RFU LOC730098 (11760151_x_at) / Fold change /veh LOC730098 (11760151_x_at) / RFU OR4N2 (11742367_at) / Fold change /veh OR4N2 (11742367_at) / RFU PRRT2 (11749266_a_at) / Fold change /veh PRRT2 (11749266_a_at) / RFU SNX32 (11753110_a_at) / Fold change /veh SNX32 (11753110_a_at) / RFU CDHR5 (11726645_a_at) / Fold change /veh CDHR5 (11726645_a_at) / RFU RCAN1 (11760418_a_at) / Fold change /veh RCAN1 (11760418_a_at) / RFU FAM167A (11723789_a_at) / Fold change /veh FAM167A (11723789_a_at) / RFU FAM26E (11764081_at) / Fold change /veh FAM26E (11764081_at) / RFU ISYNA1 (11749810_s_at) / Fold change /veh ISYNA1 (11749810_s_at) / RFU ACY1 (11761880_at) / Fold change /veh ACY1 (11761880_at) / RFU 11764098_at / Fold change /veh 11764098_at / RFU SAMD14 (11745864_x_at) / Fold change /veh SAMD14 (11745864_x_at) / RFU NPB (11741838_a_at) / Fold change /veh NPB (11741838_a_at) / RFU TMPRSS6 (11731388_a_at) / Fold change /veh TMPRSS6 (11731388_a_at) / RFU KRTAP10-2 (11738614_at) / Fold change /veh KRTAP10-2 (11738614_at) / RFU ARHGAP8 /// PRR5-ARHGAP8 (11727945_x_at) / Fold change /veh ARHGAP8 /// PRR5-ARHGAP8 (11727945_x_at) / RFU KRTAP5-7 /// NADSYN1 (11734609_at) / Fold change /veh KRTAP5-7 /// NADSYN1 (11734609_at) / RFU RASL12 (11751679_a_at) / Fold change /veh RASL12 (11751679_a_at) / RFU CDKN2B (11736163_a_at) / Fold change /veh CDKN2B (11736163_a_at) / RFU PRF1 (11729649_at) / Fold change /veh PRF1 (11729649_at) / RFU, ZNF638 /// ZNF638-IT1 / Fold change vs veh, ZNF638 /// ZNF638-IT1 / RFU, PANK3 / Fold change vs veh, PANK3 / RFU, SH3YL1 / Fold change vs veh, SH3YL1 / RFU, ZEB2 / Fold change vs veh, ZEB2 / RFU, NRIP1 / Fold change vs veh, NRIP1 / RFU, PTTG1IP / Fold change vs veh, PTTG1IP / RFU, CAPN2 / Fold change vs veh, CAPN2 / RFU, MED14 / Fold change vs veh, MED14 / RFU, SNORA58 / Fold change vs veh, SNORA58 / RFU, C1orf63 / Fold change vs veh, C1orf63 / RFU, LRRFIP1 / Fold change vs veh, LRRFIP1 / RFU, NDUFAF7 / Fold change vs veh, NDUFAF7 / RFU, SLC12A2 / Fold change vs veh, SLC12A2 / RFU, IBTK / Fold change vs veh, IBTK / RFU, ESF1 / Fold change vs veh, ESF1 / Fold change vs veh, TMEM50B / RFU, TAOK1 / Fold change vs veh, TAOK1 / RFU, ACBD3 / Fold change vs veh, ACBD3 / RFU, TMA16 / Fold change vs veh, TMA16 / RFU, RWDD3 / Fold change vs veh, RWDD3 / RFU, BCAT1 / Fold change vs veh, BCAT1 / RFU, EDEM3 / Fold change vs veh, EDEM3 / RFU, TMEM33 / Fold change vs veh, TMEM33 / RFU, WDR75 / Fold change vs veh, WDR75 / RFU, AHCTF1 / Fold change vs veh, AHCTF1 / RFU, TFRC / Fold change vs veh, TFRC / RFU, ZDHHC17 / Fold change vs veh, ZDHHC17 / RFU, NOM1 / Fold change vs veh, NOM1 / RFU, ARL8B / Fold change vs veh, ARL8B / RFU, ZBTB11 / Fold change vs veh, ZBTB11 / RFU, TAMM41 / Fold change vs veh, TAMM41 / RFU, KIAA1704 /// LOC100996395 / Fold change vs veh, KIAA1704 /// LOC100996395 / RFU, ING1 / Fold change vs veh, ING1 / RFU, TRMT61B / Fold change vs veh, TRMT61B / RFU, FUBP3 / Fold change vs veh, FUBP3 / RFU, TP53 / Fold change vs veh, TP53 / RFU, TNKS2 / Fold change vs veh, TNKS2 / RFU, ZFP14 / Fold change vs veh, ZFP14 / RFU, ACTR2 / Fold change vs veh, ACTR2 / RFU, PPP3R1 / Fold change vs veh, PPP3R1 / RFU, PIK3R1 / Fold change vs veh, PIK3R1 / RFU, HNRNPA1 / Fold change vs veh, HNRNPA1 / RFU, RNF170 / Fold change vs veh, RNF170 / RFU, ZNF28 / Fold change vs veh, ZNF28 / RFU, RNGTT / Fold change vs veh, RNGTT / RFU, OGT / Fold change vs veh, OGT / RFU, BRD1 / Fold change vs veh, BRD1 / RFU, MARS / Fold change vs veh, MARS / RFU, ZNF655 / Fold change vs veh, ZNF655 / RFU, FAHD1 / Fold change vs veh, FAHD1 / RFU, BDP1 / Fold change vs veh, BDP1 / RFU, LRRCC1 / Fold change vs veh, LRRCC1 / RFU, ARID1A / Fold change vs veh, ARID1A / RFU, ZNF146 / Fold change vs veh, ZNF146 / RFU, ZNF330 / Fold change vs veh, ZNF330 / RFU, GPN3 / Fold change vs veh, GPN3 / RFU, C9orf123 / Fold change vs veh, C9orf123 / RFU, N4BP2L2 / Fold change vs veh, N4BP2L2 / RFU, ARFIP1 / Fold change vs veh, ARFIP1 / RFU, FAM179B / Fold change vs veh, FAM179B / RFU, BCL10 / Fold change vs veh, BCL10 / RFU, UHRF1BP1L / Fold change vs veh, UHRF1BP1L / RFU, BET1 / Fold change vs veh, BET1 / RFU, CNOT2 / Fold change vs veh, CNOT2 / RFU, ZNF268 / Fold change vs veh, ZNF268 / Fold change vs veh, ZNF507 / RFU, DGCR2 / Fold change vs veh, DGCR2 / RFU, WDSUB1 / Fold change vs veh, WDSUB1 / Fold change vs veh, HSP90B1 /// MIR3652 / RFU, ADSS / Fold change vs veh, ADSS / RFU, GK / Fold change vs veh, GK / RFU, ZNF148 / Fold change vs veh, ZNF148 / RFU, TAF9 / Fold change vs veh, TAF9 / RFU, SLC1A5 / Fold change vs veh, SLC1A5 / RFU, SLMO2 / Fold change vs veh, SLMO2 / RFU, ABCC4 / Fold change vs veh, ABCC4 / RFU, LOC101060439 /// RAP1B / Fold change vs veh, LOC101060439 /// RAP1B / RFU, RFX7 / Fold change vs veh, RFX7 / RFU, GTPBP10 / Fold change vs veh, GTPBP10 / RFU, CNEP1R1 / Fold change vs veh, CNEP1R1 / RFU, BIVM-ERCC5 /// ERCC5 / Fold change vs veh, BIVM-ERCC5 /// ERCC5 / RFU, ILF3 / Fold change vs veh, ILF3 / RFU 11762660_at / Fold change /veh 11762660_at / RFU VCAN (11757783_s_at) / Fold change /veh VCAN (11757783_s_at) / RFU DDX43 (11728927_at) / Fold change /veh DDX43 (11728927_at) / RFU KRT8 (11758188_x_at) / Fold change /veh KRT8 (11758188_x_at) / RFU NKD1 (11759106_at) / Fold change /veh NKD1 (11759106_at) / RFU SRD5A1 (11742802_a_at) / Fold change /veh SRD5A1 (11742802_a_at) / RFU TPSAB1 /// TPSB2 (11721975_s_at) / Fold change /veh TPSAB1 /// TPSB2 (11721975_s_at) / RFU GSTM3 (11746129_a_at) / Fold change /veh GSTM3 (11746129_a_at) / RFU IL23R (11737362_x_at) / Fold change /veh IL23R (11737362_x_at) / RFU TMEM51 (11727254_a_at) / Fold change /veh TMEM51 (11727254_a_at) / RFU PIWIL2 (11732686_x_at) / Fold change /veh PIWIL2 (11732686_x_at) / RFU ORM1 (11744905_x_at) / Fold change /veh ORM1 (11744905_x_at) / RFU CCDC152 (11743942_at) / Fold change /veh CCDC152 (11743942_at) / RFU ECM1 (11717891_a_at) / Fold change /veh ECM1 (11717891_a_at) / RFU IL23R (11748794_a_at) / Fold change /veh IL23R (11748794_a_at) / RFU TNFAIP8L3 (11732012_x_at) / Fold change /veh TNFAIP8L3 (11732012_x_at) / RFU MBOAT4 (11741988_at) / Fold change /veh MBOAT4 (11741988_at) / RFU 11764193_at / Fold change /veh 11764193_at / RFU TMEM53 (11763286_at) / Fold change /veh TMEM53 (11763286_at) / RFU MAGEB2 (11727129_at) / Fold change /veh MAGEB2 (11727129_at) / RFU TMEM200A (11744735_a_at) / Fold change /veh TMEM200A (11744735_a_at) / RFU CCDC152 (11751479_a_at) / Fold change /veh CCDC152 (11751479_a_at) / RFU FAM211A (11726209_a_at) / Fold change /veh FAM211A (11726209_a_at) / RFU RGS16 (11746705_a_at) / Fold change /veh RGS16 (11746705_a_at) / RFU VCAN (11755009_s_at) / Fold change /veh VCAN (11755009_s_at) / RFU RHOB (11743442_s_at) / Fold change /veh RHOB (11743442_s_at) / RFU RGS16 (11720943_a_at) / Fold change /veh RGS16 (11720943_a_at) / RFU RGS16 (11720944_at) / Fold change /veh RGS16 (11720944_at) / RFU, VPS4B / Fold change vs veh, VPS4B / RFU, CREB1 / Fold change vs veh, CREB1 / RFU, DNAJC13 / Fold change vs veh, DNAJC13 / RFU, GNAQ / Fold change vs veh, GNAQ / RFU, CDK5R1 / Fold change vs veh, CDK5R1 / RFU, ZRANB3 / Fold change vs veh, ZRANB3 / RFU, CUL4A / Fold change vs veh, CUL4A / RFU, CCNY / Fold change vs veh, CCNY / RFU, UFL1 / Fold change vs veh, UFL1 / RFU, COG3 / Fold change vs veh, COG3 / RFU, DIAPH2 / Fold change vs veh, DIAPH2 / RFU, SKA2 / Fold change vs veh, SKA2 / RFU, AFF3 / Fold change vs veh, AFF3 / RFU, LMF1 / Fold change vs veh, LMF1 / RFU, IPO11 / Fold change vs veh, IPO11 / RFU, DFFB / Fold change vs veh, DFFB / RFU, FOXP1 / Fold change vs veh, FOXP1 / RFU, CARD8 / Fold change vs veh, CARD8 / RFU, STRN3 / Fold change vs veh, STRN3 / RFU, ADK / Fold change vs veh, ADK / RFU, RASSF2 / Fold change vs veh, RASSF2 / RFU, WIPF1 / Fold change vs veh, WIPF1 / RFU, LARP1B / Fold change vs veh, LARP1B / RFU, RASA1 / Fold change vs veh, RASA1 / RFU, RB1 / Fold change vs veh, RB1 / RFU, PPFIA1 / Fold change vs veh, PPFIA1 / RFU, MAT2A / Fold change vs veh, MAT2A / RFU, CCT5 / Fold change vs veh, CCT5 / RFU, WDR92 / Fold change vs veh, WDR92 / RFU, CUX1 / Fold change vs veh, CUX1 / RFU, TTC7A / Fold change vs veh, TTC7A / RFU, TMEM135 / Fold change vs veh, TMEM135 / RFU, DEPTOR / Fold change vs veh, DEPTOR / RFU, CPM / Fold change vs veh, CPM / RFU, DNAJB6 / Fold change vs veh, DNAJB6 / RFU, CACNA2D3 / Fold change vs veh, CACNA2D3 / RFU, DTX4 / Fold change vs veh, DTX4 / RFU, TFCP2 / Fold change vs veh, TFCP2 / RFU, GMCL1 /// GMCL1P1 / Fold change vs veh, GMCL1 /// GMCL1P1 / RFU, AEBP2 / Fold change vs veh, AEBP2 / RFU, SNHG1 /// SNORD22 /// SNORD25 /// SNORD26 /// SNORD27 /// SNORD28 /// SNORD29 /// SNORD31 / Fold change vs veh, SNHG1 /// SNORD22 /// SNORD25 /// SNORD26 /// SNORD27 /// SNORD28 /// SNORD29 /// SNORD31 / Fold change (Aza/veh), C12orf56 (ProbeSet 11735607_a_at) / Fold change (ACY-1035/veh), C12orf56 (ProbeSet 11735607_a_at) / Fold change (Aza/veh), FGFR1OP (ProbeSet 11751329_s_at) / Fold change (ACY-1035/veh), FGFR1OP (ProbeSet 11751329_s_at) / Fold change (Aza/veh), VPS36 (ProbeSet 11739960_a_at) / Fold change (ACY-1035/veh), VPS36 (ProbeSet 11739960_a_at) / RFU SYPL1 (11715823_x_at) / Fold change /veh SYPL1 (11715823_x_at) / RFU IGFBP7 (11715501_s_at) / Fold change /veh IGFBP7 (11715501_s_at) / RFU REEP3 (11722064_at) / Fold change /veh REEP3 (11722064_at) / RFU IGLL1 (11728026_x_at) / Fold change /veh IGLL1 (11728026_x_at): dose or concentration left out as unconfirmed
Settings: ProbeSet 11763895_x_at; LIST B

Compound: Nc1ncn([C@@H]2O[C@H](CO)[C@@H](O)[C@H]2O)c(=O)n1 [azacitidine]
- Fold change vs veh, SNORA58: 1.03

From paper PMC5218480 (PLoS ONE, 2017)
